{
  "source": "patent US20040101521A1",
  "about": "“Iron sequestration or elimination to reduce neurodegeneration or Parkinsons disease progression” (The Buck Institute for Research on Aging, priority 2002, published 2004)",
  "key": {"[1]": {"conditions": "mouse, in vivo; cited from earlier work"}, "[2]": {"experiment": "Total SN iron content by mass spectrometry and MRI in CQ-fed mice", "format": "in vivo, mouse", "conditions": "CQ 30 mg/kg daily oral gavage, 8 weeks, C57B1 mice", "method": "Mice were housed according to standard animal care protocols, fed ad libitum, kept on a 12-hr light/dark cycle and maintained in a pathogen-free environment in the Buck Institute Vivarium. Animals used for studies were young adults (2-6 months of age). […] For CQ studies, C57B1 mice were obtained from Jackson Labs and randomized for therapy trials. CQ was suspended in 0.05% carboxymethylcellulose (Sigma) and delivered via oral gavage at a daily dosage of 30 mg/kg as previously described for a period of 8 weeks (Cherny et al. (2001) Neuron 30: 665-676); controls received vehicle alone.\nMRI studies were performed using a Bruker AMX500 11.7 tesla MRI system as previously described (Gilissen et al. (1998) Am. J. Primatol. 45: 291-299). Brains were fixed as described above and MRI performed in the coronal plane. Comparisons of SN hypointensity (dark area) on T2-weighted MR samples encompassing SNc, SNr, and red nucleus were performed (IPLab Spectrum, Scientific Image Processing from Scanalytics, Inc.)(Morgan et al., 1998). Intensity was normalized using cortical white matter as control.\nSN was dissected, snap frozen in liquid nitrogen, lypholized and dry weight/tissue measured. Preweighed lypholized samples were next taken up in 0.1 ml of concentrated nitric acid (Aristar, BDH) and allowed to digest overnight. […]"}, "[3]": {"experiment": "Open field analysis of spontaneous motor activity", "format": "in vivo, mouse", "conditions": "mice fed CQ up to 8 weeks vs. saline-fed, n=8", "method": "6-8 mice in each category were tested. Behavioral parameters were monitored in a Coulbourn Instrument Tru Scan activity monitor. Motor activities were recorded every 100 ms for a 10 minute period. Tru Scan 99 software was used to generate experimental protocols and to acquire and store the data. The data was exported to EXCEL and analyzed via one way ANOVA."}, "MPTP-induced toxicity": {"tested_on": "MPTP-induced toxicity", "experiment": "Striatal dopamine, DOPAC and HVA by HPLC after MPTP", "format": "in vivo, mouse", "method": "(§1) Animals were injected with either 15 mg/kg body weight MPTP or saline every 2 hrs, 4 doses. Dopamine, DOPAC, and HVA or MPP+ from dissected striata were analyzed by I-PLC using a 5 micrometer C-18 reverse phase column and precolumn (Brownlee Labs) followed by electrochemical detection with a glassy carbon electrode (Klivenyi et al. (2000) J. Neurosci. 20: 1-7)."}, "[4]": {"conditions": "Phase II, similar dosage, with B12 supplementation; cited from earlier work"}, "plaque formation": {"tested_on": "plaque formation", "conditions": "Cherny et al. 2001; cited from earlier work"}, "[5]": {"conditions": "lipophilic; cited from earlier work"}, "[6]": {"tested_on": "MPTP-induced oxidative stress", "experiment": "SN GSH levels after MPTP", "format": "in vivo, mouse", "conditions": "CQ pretreated animals, 24 hrs after MPTP, n=6", "method": "Following MPTP or saline injection, GSH levels were measured in the SN by the method of Griffith (Griffith (1980) Anal. Biochem. 106; 207-212)."}, "[7]": {"tested_on": "MPTP-mediated oxidative stress", "experiment": "Slot blot of 4-HNE-protein conjugates and protein carbonyls in SN after MPTP", "format": "in vivo, mouse", "conditions": "CQ pretreated animals, 24 hrs after MPTP, n=6", "method": "SN were dissected and homogenized in 10 mM HEPES-KOH, pH 7.2, 2 mM EDTA, 0.1% CHAPS, 5 mM dithiothreitol (DTT), 1 mM phenylmethylsulfonyl fluoride, 10 μg/ml pepstatin A, 10 μg/ml aprotinin, and 20 μg/ml leupeptin (Nicholson et al. (1995) Nature 376: 37-43). 15 μg of total protein from each sample was either run on a 15% SDS-PAGE gel (BioRad) and transferred to nitrocellulose membrane or directly slotted onto membrane. […] Autoradiography was performed with enhanced chemiluminescence (Amersham Pharmacia). For 4HNNE-protein conjugates and protein carbonyls, relative optical band density were quantified using a Chemilmager 5500 (Alpha Innotech Corporation). Reported values are the results of three independent experiments."}, "[8]": {"conditions": "Yassin et al. 2000; cited from earlier work"}, "monoamine oxidase-B": {"tested_on": "monoamine oxidase-B", "experiment": "MAO-B activity in brain homogenates", "format": "in vivo, mouse", "conditions": "CQ-fed, n=4", "method": "Brain homogenates were analyzed by the toulene extraction method using 10 μM 14-C labeled PEA as substrate (NEN, […]) as previously described (Wei et al. (1996) J. Neurosci. Res. 46: 666-673; Wei et al. (1997) J. Neurosci. Res. 50: 618-626). Values are reported as cpm/μg protein."}, "[9]": {"tested_on": "MPTP-induced dopaminergic SN cell loss", "experiment": "Stereological TH+ SN neuron counts after MPTP", "format": "in vivo, mouse", "method": "Neuronal counts were performed on TH+ positive SN neurons using the unbiased dissector method (West (1993) Neurobiol. Aging 14: 275-285). Fixed coronal brain sections (40 μm) were immunostained with TH antibody (1:500 dilution, Chemicon), coverslipped in aqueous medium and TH+ cells counted from a total of 15-20 sections in each field per brain (i.e. every second section) at a magnification of 100× using the optical fractionator approach.\nas §1"}},
  "data": [
    {"smiles": "Oc1c(I)cc(Cl)c2cccnc12", "note": "[CQ, 5-chloro-7-iodo-8-hydroxyquinoline]", "values": [
      {"measurement": "Toxicity of the compound in mice", "setting": "[1]", "result": "lack of toxicity"},
      {"measurement": "Reduction of total SN iron levels, CQ-fed vs. saline-fed animals", "setting": "[2]", "result": "approximately 30%"},
      {"measurement": "Adverse behavioral effects in open field tests", "setting": "[3]", "result": "no significant signs of adverse behavioral effects"},
      {"measurement": "Difference in striatal dopamine levels, saline vs. CQ-fed", "setting": "MPTP-induced toxicity; absence of MPTP treatment", "result": "No significant difference"},
      {"measurement": "Loss of striatal dopamine following MPTP", "setting": "MPTP-induced toxicity; animals pretreated with CQ, 7 days after MPTP", "result": 41, "unit": "%"},
      {"measurement": "Adverse effects attributable to CQ administration", "setting": "[4]", "result": "No adverse effects"},
      {"measurement": "Plaque formation and behavioral declines in AD transgenic mouse model", "setting": "plaque formation", "result": "inhibit plaque formation and accompanying behavioral declines"},
      {"measurement": "Blood-brain barrier passage", "setting": "[5]", "result": "freely crosses the blood-brain barrier"},
      {"measurement": "Change in SN GSH following MPTP", "setting": "[6]", "result": "no significant changes"},
      {"measurement": "Change in 4-HNE-protein conjugates in SN following MPTP", "setting": "[7]", "result": "no significant changes"},
      {"measurement": "Change in protein carbonyl levels in SN following MPTP", "setting": "[7]", "result": "no significant changes"},
      {"measurement": "Depletion in systemic iron levels", "setting": "[8]", "result": "does not result in depletion"},
      {"measurement": "Levels of brain and serum vitamin B12", "setting": "[8]", "result": "lower levels"},
      {"measurement": "MAO-B activity", "setting": "monoamine oxidase-B", "result": "4500±950", "unit": "cpm/μg protein"},
      {"measurement": "Decrease in SN TH+ cell numbers following MPTP", "setting": "[9]; CQ-fed animals, 7 days after MPTP", "result": 25, "unit": "%"},
      {"measurement": "SN TH+ cell numbers", "setting": "[9]; CQ-fed, MPTP-treated, n=5", "result": "11,462±915"}
    ]}
  ]
}
